In patent US10919941B2, “Functional lipid constructs” (KODE BIOTECH LIMITED, priority 2007, dated 2021):
No end group written: not given here.

Experiments:
Format in all cases: cell-based, human
[1] = tested on: Miltenberger Antibody Positive Panel; test: Reactivity of modified RBCs against the Miltenberger Antibody Positive Panel; design: key to score vs panel 15 TAP2 / score vs panel 4 T7202 / score vs panel 8 T5896 / score vs panel 2 T217 / score vs panel 3 T165 / score vs panel 14 TAP1 / score vs panel 10 Mia / score vs panel 11 Mur / score vs panel 12 Gam / score vs panel 6 T6025 / score vs panel 7 T8445 / score vs panel 9 MIII / score vs panel 13 BoxH / reactivity with Panel Serum #7 (T8445) / agglutination score, Panel Serum #7 (T8445): 0 or ‘−’ no agglutination; 0 or ‘−’ no agglutination; 1+ or 3=very weak agglutination; 1+ or 3=very weak agglutination; 2+ or 5=weak agglutination; 2+ or 5=weak agglutination; 3+ or 8=moderate strong agglutination; 3+ or 8=moderate strong agglutination; 4+ or 10/12=strong agglutination; 4+ or 10/12=strong agglutination; 4+ or 10/12=strong agglutination; settings: for agglutination score, Panel Serum #7 (T8445): cells modified at 50 μg/ml, 2 hour 37° C., BioVue AHG cards; for reactivity with Panel Serum #7 (T8445): construct 50 μg/ml (2 hours, 37° C.)
Procedure: (§1) Red blood cells are modified by mixing 1 part by volume of washed packed red blood cells with 1 part by volume of peptide-lipid construct dispersed at a concentration of 10 to 1000 pg/ml in cell media (Celpresol™).
(§2) The suspensions are either: • 1. incubated for 2 hours at 37° C. before being washed and suspended in a cell medium for serological analysis at a concentration of 0.8 to 3% (Method 1); or • 2. incubated for 3 to 4 hours at room temperature (circa 25° C.) followed by 18 hours at 4° C. before being washed and suspended in a cell medium for serological analysis at a concentration of 0.8 to 3% (Method 2).
(§3) Serological reactions are graded or scored by either of two established systems (0 or ‘−’ no agglutination, 1+ or 3=very weak agglutination, 2+ or 5=weak agglutination, 3+ or 8=moderate strong agglutination, 4+ or 10/12=strong agglutination)
(§4) Serological platforms used are Tube (addition of reagents and reactants into plastic or glass serology tubes and after appropriate incubations, washing and centrifugation observing reactions macroscopically by eye and a 10× magnification eyepiece and scoring) and BioVue™ (addition of reactants into cassettes containing beads (including some reactants) and after appropriate incubations and centrifugation observing the reaction patterns trapped within the Gel matrix). BioVue is the serological column agglutination platform of Ortho-Clinical Diagnostics. Diamed is the serological column agglutination platform of Diamed AG.

[2] = tested on: antibody negative serums; test: False positive reactions of modified RBCs with antibody negative serums/plasma; design: key to Reaction score BioVue AHG, PAC samples 1-46, 49, 50, 52, 53 / Reaction score BioVue AHG, PAC sample 47 / Reaction score BioVue AHG, PAC sample 48 / Reaction score BioVue AHG, PAC sample 51 / agglutination score, T series serum 2 / agglutination score, T series serum 42 / agglutination score, T series serum 63 / agglutination score, T series serum 62 / agglutination score, T series serum 7 / agglutination score, T series serum 20 / agglutination score, T series serum 48 / agglutination score, T series serum 22 / agglutination score, T series serum 39 / agglutination score, T series serum 23 / agglutination score, T series serum 30 / agglutination score, T series serum 4 / agglutination score, T series serum 31 / agglutination score, T series serum 44 / agglutination score, T series serum 61 / agglutination score, T series serum 18 / agglutination score, T series serum 21 / agglutination score, T series serum 28 / agglutination score, T series serum 55 / agglutination score, false positive serum T18 / agglutination score, false positive serum T21 / agglutination score, false positive serum T28 / agglutination score, false positive serum T55 / agglutination score, false positive serum T78 / agglutination score, false positive serum T92: 0 or ‘−’ no agglutination; 0 or ‘−’ no agglutination; 1+ or 3=very weak agglutination; 1+ or 3=very weak agglutination; 2+ or 5=weak agglutination; 2+ or 5=weak agglutination; 3+ or 8=moderate strong agglutination; 3+ or 8=moderate strong agglutination; 4+ or 10/12=strong agglutination; 4+ or 10/12=strong agglutination; 4+ or 10/12=strong agglutination
[3] = tested on: Miltenberger antibody positive sera; test: BioVue AHG card column agglutination serology of modified red blood cells; design: key: 0 or ‘−’ no agglutination; 0 or ‘−’ no agglutination; 1+ or 3=very weak agglutination; 1+ or 3=very weak agglutination; 2+ or 5=weak agglutination; 2+ or 5=weak agglutination; 3+ or 8=moderate strong agglutination; 3+ or 8=moderate strong agglutination; 4+ or 10/12=strong agglutination; 4+ or 10/12=strong agglutination; 4+ or 10/12=strong agglutination; settings: construct 50 μg/ml
Procedure: as §1, §2, §3, §4

[4] = tested on: sera reactive with modified RBCs; test: Neutralisation of reactive sera with free peptide, retested against modified RBCs (BioVue); design: key: 0 or ‘−’ no agglutination; 0 or ‘−’ no agglutination; 1+ or 3=very weak agglutination; 1+ or 3=very weak agglutination; 2+ or 5=weak agglutination; 2+ or 5=weak agglutination; 3+ or 8=moderate strong agglutination; 3+ or 8=moderate strong agglutination; 4+ or 10/12=strong agglutination; 4+ or 10/12=strong agglutination; 4+ or 10/12=strong agglutination; settings: 40 μl plasma + 10 μl neutraliser 1.0 mg/ml, 30 minutes 37° C.
Text: Optionally, where F is a peptide, the method includes the preliminary step of: • Adding an amount of the peptide to the sample of the serum; where the amount of the peptide is sufficient to neutralize non-specific agglutination or confirm specificity of the reactive antibody.

[5] = cells modified at 50 μg/ml, 2 hour 37° C., BioVue AHG cards
[6] = blood donor plasma, construct 50 μg/ml (2 hours, 37° C.)

M30: DOPE peptide-lipid construct: Mur peptide DTYPAHTANE, leader c, spacer CMG(2) (DTYPAHTANEC; also: DOPE peptide-lipid construct via leader Cys, spacer CMG(2))
score vs panel 2 T217 ([1]; Table 9, construct 50 μg/ml): 0
score vs panel 4 T7202 ([1]; Table 9, construct 50 μg/ml): 10
score vs panel 7 T8445 ([1]; Table 9, construct 50 μg/ml): 8
score vs panel 8 T5896 ([1]; Table 9, construct 50 μg/ml): 0
score vs panel 15 TAP2 ([1]; Table 9, construct 50 μg/ml): 8
agglutination score, Panel Serum #7 (T8445) [1]: 8
reactivity with Panel Serum #7 (T8445) [1]: 8
% positive ([2]; T series reactives (n = 58), BioVue AHG cards): 9%
agglutination score, T series serum 2 [2, 5]: 10
agglutination score, T series serum 4 [2, 5]: 8
agglutination score, T series serum 7 [2, 5]: 0
agglutination score, T series serum 18 [2, 5]: 0
agglutination score, T series serum 20 [2, 5]: 0
agglutination score, T series serum 21 [2, 5]: 0
agglutination score, T series serum 22 [2, 5]: 0
agglutination score, T series serum 23 [2, 5]: 0
agglutination score, T series serum 28 [2, 5]: 0
agglutination score, T series serum 30 [2, 5]: 0
agglutination score, T series serum 31 [2, 5]: 8
agglutination score, T series serum 39 [2, 5]: 0
agglutination score, T series serum 42 [2, 5]: 0
agglutination score, T series serum 44 [2, 5]: 10
agglutination score, T series serum 48 [2, 5]: 0
agglutination score, T series serum 55 [2, 5]: 0
agglutination score, T series serum 61 [2, 5]: 10
agglutination score, T series serum 62 [2, 5]: 0
agglutination score, T series serum 63 [2, 5]: 0

M40: DOPE peptide-lipid construct: Hil peptide EEETGETGQL, leader c, spacer CMG(2) (EEETGETGQLC; also: DOPE peptide-lipid construct via leader Cys, spacer CMG(2))
BioVue score vs TAP1 [3]: 0
BioVue score vs positive sample 2 T217 (T) [3]: 0
BioVue score vs positive sample 3 T165 (Mur) [3]: 0
BioVue score vs positive sample 4 T7202 (M) [3]: 0
BioVue score vs positive sample 8 T5896 (M + K + Mur) [3]: 0
Reaction score BioVue AHG, PAC sample 47 [2, 6]: 0
Reaction score BioVue AHG, PAC sample 48 [2, 6]: 0
Reaction score BioVue AHG, PAC sample 51 [2, 6]: 0
Reaction score BioVue AHG, PAC samples 1-46, 49, 50, 52, 53 [2, 6]: 0
% False Positives ([2]; panel of blood donor plasma samples (PAC), BioVue AHG, construct 50 μg/ml): 0%

M25: DOPE peptide-lipid construct: Mur peptide Tyr Pro Ala His Thr Ala Asn Gln, leader c, spacer CMG(2)
score vs panel 2 T217 ([1]; Table 9, construct 50 μg/ml): 0
score vs panel 3 T165 ([1]; Table 9, construct 50 μg/ml): 3
score vs panel 4 T7202 ([1]; Table 9, construct 50 μg/ml): 0
score vs panel 6 T6025 ([1]; Table 9, construct 50 μg/ml): 0
score vs panel 7 T8445 ([1]; Table 9, construct 50 μg/ml): 3
score vs panel 8 T5896 ([1]; Table 9, construct 50 μg/ml): 0
score vs panel 9 MIII ([1]; Table 9, construct 50 μg/ml): 0
score vs panel 10 Mia ([1]; Table 9, construct 50 μg/ml): 0
score vs panel 11 Mur ([1]; Table 9, construct 50 μg/ml): 0
score vs panel 12 Gam ([1]; Table 9, construct 50 μg/ml): 0
score vs panel 15 TAP2 ([1]; Table 9, construct 50 μg/ml): 8
agglutination score, Panel Serum #7 (T8445) [1]: 3
reactivity with Panel Serum #7 (T8445) [1]: 3
agglutination score, false positive serum T78 ([2]; larger series = 102, cells modified at 50 μg/ml, 2 hour 37° C., BioVue AHG cards): 5

M41: DOPE peptide-lipid construct: Hil peptide ETGETGQLVH, leader c, spacer CMG(2) (ETGETGQLVHC; also: DOPE peptide-lipid construct via leader Cys, spacer CMG(2))
BioVue score vs TAP1 [3]: 0
BioVue score vs positive sample 2 T217 (T) [3]: 0
BioVue score vs positive sample 3 T165 (Mur) [3]: 0
BioVue score vs positive sample 4 T7202 (M) [3]: 0
BioVue score vs positive sample 8 T5896 (M + K + Mur) [3]: 0

M28 peptide (TYPAHTANEC)
Post-neutralisation serology, PAC74 ([4]; cells modified with M22): 8
Post-neutralisation serology, TAP1 ([4]; cells modified with M22): 8
Post-neutralisation serology, TAP2 ([4]; head: cells modified with the peptide-lipid construct M22 (title: M28)): 8
